Reference: PubChem BioAssay AID248 (DTP/NCI, 2004)
Toxic doses and inconclusive results are not listed.

System: L1210 leukemia ip in BDF1 mice, survival T/C
Assay: NCI In Vivo Anticancer Drug Screen. Data for tumor model L1210 Leukemia (intraperitoneal) in B6D2F1 (BDF1) mice
Details: endpoint: mean survival time, higher = longer survival
Method in brief: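 Transplantable tumor model; survival measured in treated vs vehicle control mice. Value = treated/control.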

[1] = dose: 100.0 mg/kg/injection, schedule: Q01DX001 (ip), vehicle: saline
[2] = dose: 200.0 mg/kg/injection, schedule: Q01DX001 (ip), vehicle: saline
[3] = dose: 100.0 mg/kg/injection, schedule: Q01DX009 (ip), vehicle: Klucel (hydroxypropylcellulose) (HPC)
[4] = dose: 200.0 mg/kg/injection, schedule: Q01DX009 (ip), vehicle: Klucel (hydroxypropylcellulose) (HPC)
[5] = dose: 100.0 mg/kg/injection, schedule: Q01DX001 (ip), vehicle: carboxymethylcellulose (CMC)
[6] = dose: 200.0 mg/kg/injection, schedule: Q01DX001 (ip), vehicle: carboxymethylcellulose (CMC)
[7] = dose: 400.0 mg/kg/injection, schedule: Q01DX001 (ip), vehicle: saline
[8] = dose: 100.0 mg/kg/injection, schedule: Q04DX003 (ip), vehicle: saline with Tween-80
[9] = dose: 200.0 mg/kg/injection, schedule: Q04DX003 (ip), vehicle: saline with Tween-80
[10] = dose: 400.0 mg/kg/injection, schedule: Q04DX003 (ip), vehicle: saline with Tween-80
[11] = dose: 400.0 mg/kg/injection, schedule: Q01DX009 (ip), vehicle: Klucel (hydroxypropylcellulose) (HPC)
[12] = dose: 100.0 mg/kg/injection, schedule: Q01DX009 (ip), vehicle: saline
[13] = dose: 200.0 mg/kg/injection, schedule: Q01DX009 (ip), vehicle: saline
[14] = dose: 400.0 mg/kg/injection, schedule: Q01DX009 (ip), vehicle: saline
[15] = dose: 100.0 mg/kg/injection, schedule: Q04DX003 (ip), vehicle: Klucel (hydroxypropylcellulose) (HPC)
[16] = dose: 200.0 mg/kg/injection, schedule: Q04DX003 (ip), vehicle: Klucel (hydroxypropylcellulose) (HPC)
[17] = dose: 400.0 mg/kg/injection, schedule: Q04DX003 (ip), vehicle: Klucel (hydroxypropylcellulose) (HPC)

SMILES: C[C@]12CCC(=O)C=C1CC[C@@H]1[C@@H]2C(=O)C[C@]2(C)C3=CC(=O)O[C@H]3C[C@@H]12
- T/C (dose: 25.0 mg/kg/injection, schedule: Q01DX015 (sc), vehicle: steriod suspending solution): 117 % of control
- T/C (dose: 50.0 mg/kg/injection, schedule: Q01DX015 (sc), vehicle: steriod suspending solution): 102 % of control
- T/C (dose: 100.0 mg/kg/injection, schedule: Q01DX001 (sc), vehicle: steriod suspending solution): 94 % of control
- T/C (dose: 100.0 mg/kg/injection, schedule: Q01DX015 (sc), vehicle: steriod suspending solution): 102 % of control
- T/C (dose: 200.0 mg/kg/injection, schedule: Q01DX001 (sc), vehicle: steriod suspending solution): 103 % of control
- T/C (dose: 200.0 mg/kg/injection, schedule: Q01DX015 (sc), vehicle: steriod suspending solution): 91 % of control
- T/C (dose: 400.0 mg/kg/injection, schedule: Q01DX001 (sc), vehicle: steriod suspending solution): 103 % of control
- T/C (dose: 400.0 mg/kg/injection, schedule: Q01DX015 (sc), vehicle: steriod suspending solution): 97 % of control
- T/C (dose: 600.0 mg/kg/injection, schedule: Q01DX015 (sc), vehicle: steriod suspending solution): 95 % of control

SMILES: CCOC(=O)CNC(=O)NCCc1ccccc1
- T/C (dose: 100.0 mg/kg/injection, schedule: Q01DX009 (ip), vehicle: saline with Tween-80): 112 % of control
- T/C (dose: 200.0 mg/kg/injection, schedule: Q01DX009 (ip), vehicle: saline with Tween-80): 96 % of control
- T/C (dose: 400.0 mg/kg/injection, schedule: Q01DX009 (ip), vehicle: saline with Tween-80): 87 % of control

SMILES: Cc1cc(Cl)cc(Cl)c1OCC(=O)Nc1cc(Cl)ccc1Cl
- T/C (dose: 100.0 mg/kg/injection, schedule: Q04DX002 (ip), vehicle: saline with Tween-80): 90 % of control
- T/C (dose: 200.0 mg/kg/injection, schedule: Q04DX002 (ip), vehicle: saline with Tween-80): 86 % of control
- T/C (dose: 400.0 mg/kg/injection, schedule: Q04DX002 (ip), vehicle: saline with Tween-80): 86 % of control

SMILES: C=C1OC(=O)C(=O)N1CC(=O)O
- T/C [1]: 103 % of control
- T/C [2]: 106 % of control

SMILES: CCCNC(=O)Oc1ccccc1C(N)=O
- T/C [3]: 105 % of control
- T/C [4]: 102 % of control

SMILES: [N-]=[N+]=NCC1OC(n2cnc3c(NC=O)ncnc32)CC1C(=O)O (configuration not stated)
- T/C (dose: 50.0 mg/kg/injection, schedule: Q01DX001 (ip), vehicle: carboxymethylcellulose (CMC)): 109 % of control
- T/C [5]: 101 % of control
- T/C [6]: 114 % of control
- T/C (dose: 400.0 mg/kg/injection, schedule: Q01DX001 (ip), vehicle: carboxymethylcellulose (CMC)): 95 % of control

SMILES: N#CC(c1ccccc1)C(O)(c1ccccc1)c1ccccc1 (configuration not stated)
- T/C (dose: 50.0 mg/kg/injection, schedule: Q01DX001 (ip), vehicle: saline): 98 % of control
- T/C [1]: 98 % of control
- T/C [2]: 93 % of control
- T/C [7]: 91 % of control

SMILES: COC(=O)C1CC(=O)N(Cc2ccccc2)C1 (configuration not stated)
- T/C (dose: 100.0 mg/kg/injection, schedule: Q04DX002 (ip), vehicle: Klucel (hydroxypropylcellulose) (HPC)): 89 % of control
- T/C (dose: 200.0 mg/kg/injection, schedule: Q04DX002 (ip), vehicle: Klucel (hydroxypropylcellulose) (HPC)): 100 % of control
- T/C (dose: 400.0 mg/kg/injection, schedule: Q04DX002 (ip), vehicle: Klucel (hydroxypropylcellulose) (HPC)): 92 % of control

SMILES: O=C1c2ccccc2-c2ccc(-c3ccccc3)c3ccc(CCc4ccccc4)c1c23
- T/C [8]: 100 % of control
- T/C [9]: 89 % of control
- T/C [10]: 89 % of control

SMILES: C=CS(=O)(=O)CCCCCCC
- T/C (dose: 75.0 mg/kg/injection, schedule: Q01DX001 (ip), vehicle: saline): 96 % of control
- T/C (dose: 150.0 mg/kg/injection, schedule: Q01DX001 (ip), vehicle: saline): 94 % of control
- T/C (dose: 300.0 mg/kg/injection, schedule: Q01DX001 (ip), vehicle: saline): 97 % of control

SMILES: CCOC(=O)c1ccc(NC(=O)SCCSC(=O)Nc2ccc(C(=O)OCC)cc2)cc1
- T/C [3]: 90 % of control
- T/C [4]: 91 % of control
- T/C [11]: 91 % of control

SMILES: COc1ccc(NC(=O)Nc2nccs2)c(OC)c1
- T/C [12]: 104 % of control
- T/C [13]: 102 % of control
- T/C [14]: 105 % of control

SMILES: CC(=O)NCCN(C)C
- T/C [12]: 97 % of control
- T/C (dose: 100.0 mg/kg/injection, schedule: Q04DX003 (ip), vehicle: saline): 103 % of control
- T/C [13]: 96 % of control
- T/C (dose: 200.0 mg/kg/injection, schedule: Q04DX003 (ip), vehicle: saline): 101 % of control
- T/C [14]: 97 % of control
- T/C (dose: 400.0 mg/kg/injection, schedule: Q04DX003 (ip), vehicle: saline): 97 % of control

SMILES: O=C(Oc1ccc(N=Nc2ccccc2)c(C(=O)O)c1)Oc1ccc(N=Nc2ccccc2)c(C(=O)O)c1
- T/C [5]: 101 % of control
- T/C [6]: 98 % of control

SMILES: Cc1ccccc1NC(=O)NCCCl
- T/C [8]: 88 % of control
- T/C [9]: 88 % of control
- T/C [10]: 98 % of control

SMILES: O=C(O)c1ccc(C(=O)O)c(C(=O)O)c1.[NH-]C1CCCCC1[NH-].[Pt+2]
- T/C (dose: 1.6 mg/kg/injection, schedule: Q01DX009 (ip), vehicle: sodium bicarbonate): 198 % of control
- T/C (dose: 3.2 mg/kg/injection, schedule: Q01DX009 (ip), vehicle: sodium bicarbonate): 256 % of control
- T/C (dose: 3.3 mg/kg/injection, schedule: Q01DX009 (ip), vehicle: saline): 187 % of control
- T/C (dose: 4.8 mg/kg/injection, schedule: Q01DX009 (ip), vehicle: sodium bicarbonate): 250 % of control
- T/C (dose: 6.4 mg/kg/injection, schedule: Q01DX009 (ip), vehicle: sodium bicarbonate): 179 % of control
- T/C (dose: 6.5 mg/kg/injection, schedule: Q01DX001 (ip), vehicle: saline): 112 % of control
- T/C (dose: 6.5 mg/kg/injection, schedule: Q01DX009 (ip), vehicle: saline): 194 % of control
- T/C (dose: 13.0 mg/kg/injection, schedule: Q01DX001 (ip), vehicle: saline): 115 % of control
- T/C (dose: 13.0 mg/kg/injection, schedule: Q01DX009 (ip), vehicle: saline): 152 % of control
- T/C (dose: 20.0 mg/kg/injection, schedule: Q01DX001 (ip), vehicle: sodium bicarbonate): 220 % of control
- T/C (dose: 26.0 mg/kg/injection, schedule: Q01DX009 (ip), vehicle: saline): 102 % of control
- T/C (dose: 40.0 mg/kg/injection, schedule: Q01DX001 (ip), vehicle: sodium bicarbonate): 205 % of control

SMILES: O=C(Nc1cc(C(F)(F)F)ccc1Cl)n1cccc1
- T/C [3]: 113 % of control
- T/C [4]: 113 % of control
- T/C [11]: 106 % of control

SMILES: Cc1ccc(S(=O)(=O)N(C)c2ccccc2C(=O)O)cc1
- T/C [15]: 104 % of control
- T/C [16]: 97 % of control
- T/C [17]: 95 % of control

SMILES: S=P(NCCSCc1ccccc1)(N1CC1)N1CC1
- T/C (dose: 6.5 mg/kg/injection, schedule: Q01DX011 (ip), vehicle: carboxymethylcellulose (CMC)): 98 % of control
- T/C (dose: 13.0 mg/kg/injection, schedule: Q01DX011 (ip), vehicle: carboxymethylcellulose (CMC)): 102 % of control
- T/C (dose: 26.0 mg/kg/injection, schedule: Q01DX011 (ip), vehicle: carboxymethylcellulose (CMC)): 110 % of control
- T/C (dose: 200.0 mg/kg/injection, schedule: Q01DX015 (ip), vehicle: carboxymethylcellulose (CMC)): 106 % of control

SMILES: CC(C)(CCC(=S)N1CCOCC1)c1ccccc1
- T/C [15]: 101 % of control
- T/C [16]: 102 % of control
- T/C [17]: 102 % of control

SMILES: CC(C)(C)c1ccc(OCCCOc2ccc(C(=O)O)cc2)cc1
- T/C (dose: 100.0 mg/kg/injection, schedule: Q01DX001 (ip), vehicle: Klucel (hydroxypropylcellulose) (HPC)): 97 % of control
- T/C (dose: 100.0 mg/kg/injection, schedule: Q01DX009 (ip), vehicle: saline sonified): 103 % of control
- T/C (dose: 200.0 mg/kg/injection, schedule: Q01DX001 (ip), vehicle: Klucel (hydroxypropylcellulose) (HPC)): 103 % of control
- T/C (dose: 200.0 mg/kg/injection, schedule: Q01DX009 (ip), vehicle: saline sonified): 118 % of control
- T/C (dose: 400.0 mg/kg/injection, schedule: Q01DX001 (ip), vehicle: Klucel (hydroxypropylcellulose) (HPC)): 100 % of control
- T/C (dose: 400.0 mg/kg/injection, schedule: Q01DX009 (ip), vehicle: saline sonified): 94 % of control

SMILES: CCOc1ccc2ccccc2c1
- T/C [1]: 102 % of control
- T/C [2]: 98 % of control
- T/C [7]: 102 % of control

SMILES: CC/C=C(/C)CCC
- T/C [8]: 93 % of control
- T/C [9]: 93 % of control
- T/C [10]: 98 % of control

SMILES: CCOC1OCN(C(C)(C)C)CC1(C)C (configuration not stated)
- T/C [12]: 118 % of control
- T/C [13]: 116 % of control
